Measurements: publication PMC11429243, “The Fluorinated NAD Precursors Enhance FK866 Cytotoxicity by Activating SARM1 in Glioblastoma Cells” (Biology, 2024)

What was measured:
NRK2 = target: T1, NRK2 (Homo sapiens, UniProt Q9NPI5); assay: HPLC of conversion of NR to NMN by purified enzyme; type: biochemical
T1 construct: gene NMRK2; recombinant human NRK2 (CDS of NM_170678.2) in pET22b, E. coli Rosetta (DE3)

NRK1 = target: T2, NRK1 (Homo sapiens, UniProt Q9NWW6); assay: HPLC of conversion of NR to NMN by purified enzyme; type: biochemical
T2 construct: gene NMRK1; recombinant human NRK1 (CDS of NM_017881.3) in pET22b, E. coli Rosetta (DE3)
T2 sequence (Q9NWW6 1-199): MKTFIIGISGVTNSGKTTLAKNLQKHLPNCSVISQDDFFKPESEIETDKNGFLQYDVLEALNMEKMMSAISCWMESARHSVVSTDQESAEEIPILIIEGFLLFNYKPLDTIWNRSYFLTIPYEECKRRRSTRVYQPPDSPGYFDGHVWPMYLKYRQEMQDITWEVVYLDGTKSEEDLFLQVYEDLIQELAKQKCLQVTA

T1 sequence (Q9NPI5 whole entry): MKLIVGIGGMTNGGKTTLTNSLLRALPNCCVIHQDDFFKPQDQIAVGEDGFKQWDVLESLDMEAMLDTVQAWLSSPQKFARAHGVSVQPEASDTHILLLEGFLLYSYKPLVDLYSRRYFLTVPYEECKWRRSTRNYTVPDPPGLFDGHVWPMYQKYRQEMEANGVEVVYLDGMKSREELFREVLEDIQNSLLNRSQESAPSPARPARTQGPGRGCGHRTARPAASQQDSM

NC(=O)c1ccc[n+]([C@@H]2O[C@H](CO)[C@@H](O)[C@H]2O)c1 [NR, nicotinamide riboside]
HPLC of conversion of NR to NMN by purified enzyme (NRK2): 17.28 pmol NR/µg/h | HPLC of conversion of NR to NMN by purified enzyme (NRK1): 12.03 pmol NR/µg/h
